Data: publication PMC9127186, “Molecular Basis Underlying Hepatobiliary and Renal Excretion of Phenolic Acids of Salvia miltiorrhiza Roots (Danshen)” (Frontiers in Pharmacology, 2022)

Key:
[1] = biological target: T1, rat Mrp4 (Rattus norvegicus, UniProt F1M3J4); test: Vesicular transport assay, inside-out membrane vesicles expressing rat Mrp4; conditions: for TransportATP/TransportAMP ratio (net transport ratio): 10 min
T1 sequence (F1M3J4 1-1325): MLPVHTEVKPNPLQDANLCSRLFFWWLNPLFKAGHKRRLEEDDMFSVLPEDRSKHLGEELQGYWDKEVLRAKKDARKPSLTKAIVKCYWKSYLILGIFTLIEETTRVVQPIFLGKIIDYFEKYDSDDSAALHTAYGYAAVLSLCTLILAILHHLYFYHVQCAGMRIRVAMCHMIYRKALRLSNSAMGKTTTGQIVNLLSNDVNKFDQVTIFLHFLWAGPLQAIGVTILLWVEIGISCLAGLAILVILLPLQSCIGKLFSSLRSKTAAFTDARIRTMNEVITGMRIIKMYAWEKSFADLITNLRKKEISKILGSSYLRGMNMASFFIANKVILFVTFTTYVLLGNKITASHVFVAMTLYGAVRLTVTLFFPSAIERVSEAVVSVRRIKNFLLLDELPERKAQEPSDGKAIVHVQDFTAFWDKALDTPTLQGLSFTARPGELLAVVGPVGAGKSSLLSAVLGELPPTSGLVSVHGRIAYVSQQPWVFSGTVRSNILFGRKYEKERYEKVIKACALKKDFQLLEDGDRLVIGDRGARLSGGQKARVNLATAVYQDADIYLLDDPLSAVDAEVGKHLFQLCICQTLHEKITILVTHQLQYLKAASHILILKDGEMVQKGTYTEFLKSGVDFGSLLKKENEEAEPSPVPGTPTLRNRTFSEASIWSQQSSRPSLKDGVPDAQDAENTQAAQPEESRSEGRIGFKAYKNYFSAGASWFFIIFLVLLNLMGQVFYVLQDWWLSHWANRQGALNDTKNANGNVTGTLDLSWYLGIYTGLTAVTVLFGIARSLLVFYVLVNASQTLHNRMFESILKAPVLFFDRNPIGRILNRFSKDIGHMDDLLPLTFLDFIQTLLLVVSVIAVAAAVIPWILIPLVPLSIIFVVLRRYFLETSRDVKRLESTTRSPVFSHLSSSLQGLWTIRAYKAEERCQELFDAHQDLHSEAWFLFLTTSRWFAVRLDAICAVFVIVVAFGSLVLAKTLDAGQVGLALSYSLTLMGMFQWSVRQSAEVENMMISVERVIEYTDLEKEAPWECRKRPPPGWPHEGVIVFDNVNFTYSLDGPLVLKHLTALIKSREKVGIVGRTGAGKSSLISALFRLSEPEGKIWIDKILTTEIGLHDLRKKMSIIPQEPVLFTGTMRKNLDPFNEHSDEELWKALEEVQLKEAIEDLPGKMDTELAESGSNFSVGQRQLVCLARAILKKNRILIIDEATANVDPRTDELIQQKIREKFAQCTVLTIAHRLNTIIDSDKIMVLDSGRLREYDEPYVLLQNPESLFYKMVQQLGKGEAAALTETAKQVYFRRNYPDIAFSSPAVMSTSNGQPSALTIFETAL
Description: Inside-out membrane vesicles (5 mg protein/mL), prepared from insect cells expressing human multidrug resistance-associated protein (MRP) 2, MRP3, MRP4, breast cancer resistance protein (BCRP), bile salt export pump (BSEP), and multidrug resistance protein (MDR) one and rat Mrp2, Mrp4, Bcrp, and Bsep, and vesicles (5 mg protein/mL; prepared from the insect cells expressing no ABC transporter; serving as negative control) were obtained from Genomembrane (Kanazawa, Japan).
The test Danshen compounds at 100 µM final concentration were separately incubated with the membrane vesicles for 10 min. Buffer C (50 mM MOPS-tris, 70 mM KCl, 7.5 mM MgCl2, pH 7.0) was used for preincubation and incubation, while buffer D (40 mM MOPS-tris, 70 mM KCl, pH 7.0) was used for vesicle washing. The transport rate (pmol/mg protein/min) of the test Danshen compound was calculated using Equation (2): Transport=(CV×VV)/T/WV (2) where C V, V V, T, and W V represent concentration of the compound in vesicular lysates supernatant (μM), volume of the lysates (μL), incubation time (10 min), and amount of vesicle protein amount per well (0.05 mg), respectively. Differential transport of the test Danshen compound between ATP-containing vesicles and AMP-containing vesicles was defined as net transport ratio (TransportATP/TransportAMP ratio). […] All the incubation samples were analyzed by liquid chromatography/mass spectrometry.

[2] = biological target: T2, human OAT1 (Homo sapiens, UniProt Q4U2R8); test: Cellular transport assay, HEK-293 cells expressing human OAT1; conditions: for TransportTC/TransportMC ratio (net transport ratio): 10 min; for K m: human renal basolateral uptake OAT1, 5 min incubation, concentrations in Table 1
T2 sequence (Q4U2R8 1-563): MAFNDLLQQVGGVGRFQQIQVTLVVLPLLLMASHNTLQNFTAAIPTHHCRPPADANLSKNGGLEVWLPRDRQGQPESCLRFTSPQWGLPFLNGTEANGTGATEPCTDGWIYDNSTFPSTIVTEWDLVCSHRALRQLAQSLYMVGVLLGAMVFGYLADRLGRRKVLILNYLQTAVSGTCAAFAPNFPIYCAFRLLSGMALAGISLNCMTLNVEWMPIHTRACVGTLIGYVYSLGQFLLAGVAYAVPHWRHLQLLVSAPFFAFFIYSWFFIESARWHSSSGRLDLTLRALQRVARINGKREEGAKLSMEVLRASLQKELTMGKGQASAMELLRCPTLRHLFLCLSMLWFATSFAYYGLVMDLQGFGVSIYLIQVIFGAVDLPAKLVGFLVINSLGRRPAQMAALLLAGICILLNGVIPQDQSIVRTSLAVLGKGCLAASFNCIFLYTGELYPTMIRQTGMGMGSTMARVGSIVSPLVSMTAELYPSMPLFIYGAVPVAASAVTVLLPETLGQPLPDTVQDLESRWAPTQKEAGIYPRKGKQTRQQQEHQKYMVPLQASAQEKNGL
Description: Briefly, HEK-293 cells were grown, at 37°C and 5% CO2, in Dulbecco’s modified Eagle’s medium, which was fortified with 10% fetal bovine serum, 1% minimal essential medium nonessential amino acids, and 1% antibiotic-antimycotic solution. A day before transfection, cells were seeded onto 24-well poly-D-lysine-coated plates at a density of 2 × 10^5 cells per well. After incubation at 37°C and 5% CO2 for 24 h, the expression plasmid and the empty vector were introduced separately into the HEK293 cells with Lipofectamine 2000 transfection reagent (Invitrogen, Carlsbad, CA, United States), according to the manufacturer’s protocol to yield transporter-expressing cells and mock cells, respectively.
Transport studies were performed 48 h after the transfection. […] Differential uptake between the transfected cells and mock cells was defined as net transport ratio (TransportTC/TransportMC ratio), where TransportTC and TransportMC are the transport rates of a test Danshen compound into transfected and mock cells, respectively. […] The determination was performed under linear uptake conditions by incubation for 5 min. Table 1 summarizes the final concentrations of the test Danshen compounds for different transporters. All the incubation samples were analyzed by liquid chromatography/mass spectrometry.
GraFit software (version 5.0; Erithacus Software Ltd, Surrey, United Kingdom) was used to determine the K m and V max values by nonlinear regression analysis of initial transport rates as a function of substrate concentration.

[3] = Danshen phenolic acid at 100 μM final concentration, rat Mrp4 vesicles
[4] = Danshen phenolic acid at 100 μM final concentration, human OAT1-transfected vs mock cells

Row | Compound | TransportATP/TransportAMP ratio (net transport ratio) [1, 3] | TransportTC/TransportMC ratio (net transport ratio) [2, 4] | substrate of rat Mrp4 [1] | substrate of human OAT1 [2] | microsomal CLint ([2]; human) [µL/min/mg] | K m [2] [µM] | microsomal CLint ([2]; human, other cell line) [µL/min/mg] | TransportATP/TransportAMP ratio (net transport ratio) ([1]; rat, 100 μM, pH 7) | TransportTC/TransportMC ratio (net transport ratio) ([2]; human, 100 μM)
1 | salvianolic acid B | 2.15 ± 0.32 | 1.21 ± 0.14 | – | – | – | – | – | – | –
2 | O=C(O)Cc1c(/C=C/C(=O)O[C@H](Cc2ccc(O)c(O)c2)C(=O)O)ccc(O)c1O [Salvianolic acid D, salvianolic acid D] | 11.1 ± 0.2 | 11.7 ± 2.4 | substrates | substrates | 2.08 | 18.1 ± 2.3 | – | – | –
3 | O=C(O)C(O)Cc1ccc(O)c(O)c1 (stereo not shown) [Tanshinol, tanshinol] | – | – | – | – | – | 98.9 ± 7.1 | 10.5 | – | –
4 | O=C(/C=C/c1ccc(O)c2c1[C@H](C(=O)O)[C@@H](c1ccc(O)c(O)c1)O2)O[C@H](Cc1ccc(O)c(O)c1)C(=O)O [Lithospermic acid, lithospermic acid] | 1.46 ± 0.01 | 2.09 ± 0.89 | – | – | – | – | – | – | –
5 | O=C(/C=C/c1ccc(O)c(O)c1)O[C@H](Cc1ccc(O)c(O)c1)C(=O)O [Rosmarinic acid, rosmarinic acid] | – | – | substrates | substrates | – | 70.8 ± 6.4 | 2.55 | 4.79 ± 0.38 | 46.8 ± 10.9
6 | O=C(/C=C/c1ccc(O)c(O)c1/C=C/c1ccc(O)c(O)c1)O[C@H](Cc1ccc(O)c(O)c1)C(=O)O [Salvianolic acid A, salvianolic acid A] | – | – | – | – | – | – | – | 2.09 ± 0.25 | 1.02 ± 0.14
7 | O=C(O)c1ccc(O)c(O)c1 [Protocatechuic acid, protocatechuic acid] | 1.17 ± 0.06 | 53.1 ± 3.9 | – | substrates | 6.43 | 37.6 ± 2.5 | – | – | –
